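Five concentrations, 48 hours, 96-well plates. Definition used: TGI = concentration required for complete inhibition of growth.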
Tests used:
Test in all cases: inhibition of tumour cell growth, NCI panel, 48 h
[1] = tested on: SNB-75 CNS
[2] = tested on: SF-539 CNS
[3] = tested on: SW-620 colon
[4] = tested on: SF-295 CNS
[5] = tested on: HT29 colon
[6] = tested on: SK-MEL-28 melanoma
[7] = tested on: SK-MEL-2 melanoma
[8] = tested on: EKVX NSCLC
[9] = tested on: HCT-15 colon
[10] = tested on: OVCAR-8 ovarian
[11] = tested on: CCRF-CEM leukemia
[12] = tested on: TK-10 renal
[13] = tested on: OVCAR-5 ovarian
[14] = tested on: RXF 393 renal
[15] = tested on: OVCAR-3 ovarian
[16] = tested on: SF-268 CNS
[17] = tested on: RPMI-8226 leukemia
[18] = tested on: IGROV1 ovarian
[19] = tested on: SN12C renal

| Structure (SMILES) | TGI [1] | TGI [2] | TGI [3] | TGI [4] | TGI [5] | TGI [6] | TGI [7] | TGI [8] | TGI [9] | TGI [10] | TGI [11] | TGI [12] | TGI [13] | TGI [14] | TGI [15] | TGI [16] | TGI [17] | TGI [18] | TGI [19] |
| --- | --- | --- | --- | --- | --- | --- | --- | --- | --- | --- | --- | --- | --- | --- | --- | --- | --- | --- | --- |
| COc1nc2c(c(=O)n1C)NC(C(O)C(O)CO)C=N2 (configuration not stated) | > 10 µM | > 10 µM | > 10 µM | > 10 µM | > 10 µM | > 10 µM | > 10 µM | > 10 µM | > 10 µM | > 10 µM | > 10 µM | > 10 µM | > 10 µM | > 10 µM | > 10 µM | > 10 µM | > 10 µM | > 10 µM | > 10 µM |
| N#C/C(=C\c1ccc(O)cc1O)C(N)=O | 67.4 µM | > 100 µM | > 100 µM | > 100 µM | 98.2 µM | > 100 µM | > 100 µM | > 100 µM | > 100 µM | > 100 µM | > 100 µM | > 100 µM | > 100 µM | 83.5 µM | > 100 µM | > 100 µM | > 100 µM | > 100 µM | > 100 µM |
| c1ccc2nc3cc4c(cc3nc2c1)NC12CCCCC1CC1=C(CCCC1)N42 (configuration not stated) | 7.06 µM | 7.7 µM | > 10 µM | > 10 µM | > 10 µM | > 10 µM | 9.53 µM | > 10 µM | > 10 µM | > 10 µM | 4.9 µM | > 10 µM | > 10 µM | 6.3 µM | 5.03 µM | > 10 µM | 5.52 µM | > 10 µM | 6.48 µM |

From PubChem BioAssay (NCI)
